Measured values: paper PMC9420858, “Synthesis, bioactivity, and molecular docking of novel arylpiperazine derivatives as potential AR antagonists” (Frontiers in Chemistry, 2022)
Read-outs that look alike come from different tables or passages of the source.

Key:
RWPE-1 cells = assay: Cytotoxicity, CCK-8 assay, RWPE-1 normal prostate epithelial cells; type: cell-based; conditions: RWPE-1 normal non-cancer human prostate epithelial cell line, 24 h, mean ± SD of three experiments
Protocol: (§1) The antiproliferative activity of compounds 5–26 was assessed using the CCK-8 assay ([Chen et al., 2016]; [Chen et al., 2017]; [Chen et al., 2018]; [Han et al., 2020]; [Guo et al., 2021]; [Hu et al., 2022]; [Zhou et al., 2022]). The 96-well plates (1×10^5 cells/mL) were seeded with cells in a medium, the plates were cultured at 37 °C for 24 h, then different concentrations of tested drugs were added, and the plates were cultured for 24 h. After 24 h, 10 μL of CCK-8 solution (5 mg/ml) was added to the wells, and the cells were cultured for 1 h at 37°C. Cell growth inhibition was performed by measuring the absorbance at 450 nm using a microplate reader, and the percentage of cell growth inhibition was then calculated for each tested drug.
(§2) Antiproliferative activity of the novel arylpiperazine derivatives was firstly evaluated against LNCaP cells using the CCK-8 assay. […] Naftopidil and finasteride ([Banday et al., 2014]) were used as control compounds. RWPE-1 cells were used to compare their toxicity. To clarify whether the antiproliferative activity was related to any interference with AR function, the AR antagonist effect was evaluated using the luciferase reporter gene assay. […] The AR luciferase assays were conducted under the co-treatment of 1 nM AR agonist R1881, and the antagonistic activity was measured by inhibiting the R1881-induced luciferase expression.

PC-3 cells [1] = assay: Antiproliferative activity, CCK-8 assay, PC-3 cells; type: cell-based; conditions: PC-3 human prostate cancer cell line, 24 h, mean ± SD of three experiments
Protocol: as §1, §2

AR-LBD (GST) = biological target: T1, AR-LBD (GST) (Rattus norvegicus, UniProt P15207); assay: AR binding, fluorescence polarization (PolarScreen AR Competitor Assay)
T1 sequence (P15207 651-882 limits assumed): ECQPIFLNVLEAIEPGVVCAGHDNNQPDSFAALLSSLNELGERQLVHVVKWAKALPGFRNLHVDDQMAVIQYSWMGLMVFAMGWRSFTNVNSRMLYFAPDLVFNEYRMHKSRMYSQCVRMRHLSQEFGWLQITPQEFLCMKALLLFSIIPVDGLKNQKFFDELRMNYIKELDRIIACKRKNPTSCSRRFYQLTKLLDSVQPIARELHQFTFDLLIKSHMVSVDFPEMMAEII
Protocol: Briefly, titrations are performed between the tested compounds and the preformed Fluormone™AL Green and the AR-LBD (GST) complex. The tested mixture was allowed to equilibrate at room temperature in 384-well plates for 4 h. […] Data of the ligand binding assays were analyzed using Prism software (GraphPad Software, Inc.).

LNCaP cells [2] = assay: Antiproliferative activity, CCK-8 assay, LNCaP cells; type: cell-based; conditions: 24 h, LNCaP human prostate cancer cell line, mean ± SD of three experiments
Protocol: as §1, §2

PC-3 cells [3] = conditions: printed without SD, ref Banday et al., 2014, read-out: PC-3 IC50 (control compound finasteride); cited from earlier work
LNCaP cells [4] = conditions: printed without SD, ref Banday et al., 2014, read-out: LNCaP IC50 (control compound finasteride); cited from earlier work
[5] = AR binding affinity IC50, fluorescence polarization

| melting point [°C] | IC50 (PC-3 cells [1]) [µM] | IC50 (AR-LBD (GST)) [µM] | IC50 (AR-LBD (GST); [5]) [µM] | IC50 (LNCaP cells [2]; Homo sapiens, LNCaP) [µM] | IC50 (LNCaP cells [2]) [µM] | Compound | IC50 (RWPE-1 cells) [µM] | IC50 (PC-3 cells [3]) [µM] | IC50 (LNCaP cells [4]) [µM] |
| --- | --- | --- | --- | --- | --- | --- | --- | --- | --- |
| 82.2 to 83.5 | > 50 | 1.46 ± 0.24 | < 2 | – | – | c1ccc(N2CCN(CCc3ccc(COc4ccc5c(c4)CCC5)cc3)CC2)cc1 [Compound 5, 1-(4-((2,3-dihydro-1H-inden-5-yloxy)methyl)phenethyl)-4-phenylpiperazine] | > 50 | – | – |
| 62.3 to 63.1 | > 50 | 2.35 ± 0.09 | < 3 | < 10 | 7.37 ± 0.15 | Cc1ccccc1N1CCN(CCc2ccc(COc3ccc4c(c3)CCC4)cc2)CC1 [Compound 8, 1-(4-((2,3-dihydro-1H-inden-5-yloxy)methyl)phenethyl)-4-o-tolylpiperazine] | > 50 | – | – |
| 77.3 to 78.5 | 25.62 ± 0.17 | 2.53 ± 0.15 | < 3 | < 10 | 8.12 ± 0.11 | COc1ccccc1N1CCN(CCc2ccc(COc3ccc4c(c3)CCC4)cc2)CC1 [Compound 12, 1-(4-((2,3-dihydro-1H-inden-5-yloxy)methyl)phenethyl)-4-(2-methoxyphenyl)piperazine] | > 50 | – | – |
| 74.2 to 75.4 | 0.87 ± 0.12 | 2.62 ± 0.25 | – | – | – | COc1cccc(N2CCN(CCc3ccc(COc4ccc5c(c4)CCC5)cc3)CC2)c1 [Compound 14, 1-(4-((2,3-dihydro-1H-inden-5-yloxy)methyl)phenethyl)-4-(3-methoxyphenyl)piperazine] | > 50 | – | – |
| 78.1 to 79.3 | 8.94 ± 0.21 | 2.85 ± 0.65 | – | < 10 | 9.72 ± 0.13 | COc1ccc(N2CCN(CCc3ccc(COc4ccc5c(c4)CCC5)cc3)CC2)cc1 [Compound 15, 1-(4-((2,3-dihydro-1H-inden-5-yloxy)methyl)phenethyl)-4-(4-methoxyphenyl)piperazine] | 21.7 ± 0.23 | – | – |
| 91.4 to 92.1 | > 50 | 2.06 ± 0.21 | < 3 | < 10 | 6.87 ± 0.06 | Clc1ccccc1N1CCN(CCc2ccc(COc3ccc4c(c3)CCC4)cc2)CC1 [Compound 19, 1-(4-((2,3-dihydro-1H-inden-5-yloxy)methyl)phenethyl)-4-(2-chlorophenyl)piperazine] | 32.67 ± 0.14 | – | – |
| 117.2 to 118.6 | > 50 | 0.65 ± 0.08 | < 2 | – | – | Clc1ccc(N2CCN(CCc3ccc(COc4ccc5c(c4)CCC5)cc3)CC2)cc1 [Compound 21, 1-(4-((2,3-dihydro-1H-inden-5-yloxy)methyl)phenethyl)-4-(4-chlorophenyl)piperazine] | > 50 | – | – |
| 77.2 to 78.4 | 23.48 ± 0.23 | 2.47 ± 0.11 | < 3 | < 10 | 6.32 ± 0.14 | Clc1cccc(N2CCN(CCc3ccc(COc4ccc5c(c4)CCC5)cc3)CC2)c1Cl [Compound 22, 1-(4-((2,3-dihydro-1H-inden-5-yloxy)methyl)phenethyl)-4-(2,3-dichlorophenyl)piperazine] | > 50 | – | – |
| 114.1 to 115.2 | 2.31 ± 0.23 | – | – | 14.7 ± 0.15 | – | Brc1ccc(N2CCN(CCc3ccc(COc4ccc5c(c4)CCC5)cc3)CC2)cc1 [Compound 24, 1-(4-((2,3-dihydro-1H-inden-5-yloxy)methyl)phenethyl)-4-(4-bromophenyl)piperazine] | > 50 | – | – |
| 53.6 to 54.8 | > 50 | 1.22 ± 0.15 | < 2 | – | – | FC(F)(F)c1ccccc1N1CCN(CCc2ccc(COc3ccc4c(c3)CCC4)cc2)CC1 [Compound 25, 1-(4-((2,3-dihydro-1H-inden-5-yloxy)methyl)phenethyl)-4-(2-(trifluoromethyl)phenyl)piperazine] | > 50 | – | – |
| 135.3 to 136.5 | > 50 | 1.43 ± 0.18 | < 2 | – | – | FC(F)(F)c1ccc(N2CCN(CCc3ccc(COc4ccc5c(c4)CCC5)cc3)CC2)cc1 [Compound 26, 1-(4-((2,3-dihydro-1H-inden-5-yloxy)methyl)phenethyl)-4-(4-(trifluoromethyl)phenyl)piperazine] | > 50 | – | – |
| – | – | – | – | – | – | CC(C)(C)NC(=O)[C@H]1CC[C@H]2[C@@H]3CC[C@H]4NC(=O)C=C[C@]4(C)[C@H]3CC[C@]12C [Finasteride] | – | 17.8 | 13.5 |
